Results reported in PubChem BioAssay (NCI).
Several values for one entry are separate records, joined by “and”; a condition that tells them apart may be missing. Identical values can stand only once.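 48-hour exposure; five concentrations; linearly interpolated endpoints. Here, GI50 denotes the concentration required for 50% inhibition of growth. TGI is the concentration that stops growth completely.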

Tests used:
Assay in all cases: growth of human tumour cells (NCI), 48 h
OVCAR-8 ovarian = tested on: OVCAR-8 ovarian
HCT-15 colon = tested on: HCT-15 colon
IGROV1 ovarian = tested on: IGROV1 ovarian
SW-620 colon = tested on: SW-620 colon
A498 renal = tested on: A498 renal
HT29 colon = tested on: HT29 colon
CAKI-1 renal = tested on: CAKI-1 renal
T-47D breast = tested on: T-47D breast
MOLT-4 leukemia = tested on: MOLT-4 leukemia
UO-31 renal = tested on: UO-31 renal
U251 CNS = tested on: U251 CNS
SK-MEL-28 melanoma = tested on: SK-MEL-28 melanoma
SF-295 CNS = tested on: SF-295 CNS
NCI-H460 lung = tested on: NCI-H460 lung
ACHN renal = tested on: ACHN renal
HCC-2998 colon = tested on: HCC-2998 colon
786-0 renal = tested on: 786-0 renal
NCI/ADR-RES ovarian = tested on: NCI/ADR-RES ovarian
SNB-75 CNS = tested on: SNB-75 CNS
NCI-H522 lung = tested on: NCI-H522 lung
SK-OV-3 ovarian = tested on: SK-OV-3 ovarian
SN12C renal = tested on: SN12C renal
MDA-MB-231 breast = tested on: MDA-MB-231 breast
CCRF-CEM leukemia = tested on: CCRF-CEM leukemia
DU-145 prostate = tested on: DU-145 prostate
TK-10 renal = tested on: TK-10 renal
OVCAR-4 ovarian = tested on: OVCAR-4 ovarian
NCI-H23 lung = tested on: NCI-H23 lung
SF-539 CNS = tested on: SF-539 CNS

CCN1CCN(Cc2ccc(-c3cc4c(N[C@H](C)c5ccccc5)ncnc4[nH]3)cc2)CC1
GI50 (OVCAR-8 ovarian): 3.5 µM and 8.1 µM | TGI (OVCAR-8 ovarian): 33 µM and > 10 µM | GI50 (HCT-15 colon): 2.56 µM and 2.39 µM | TGI (HCT-15 colon): 17.9 µM and > 10 µM | GI50 (IGROV1 ovarian): 0.112 µM and 0.176 µM | TGI (IGROV1 ovarian): 1.51 µM and 7.17 µM | GI50 (SW-620 colon): 3.45 µM and 5.46 µM | TGI (SW-620 colon): 19.9 µM and > 10 µM | GI50 (A498 renal): 0.947 µM and 0.35 µM | TGI (A498 renal): 2.82 µM and 2.08 µM | GI50 (HT29 colon): 1.99 µM and 2.41 µM | TGI (HT29 colon): 8.77 µM and > 10 µM | GI50 (CAKI-1 renal): 0.252 µM and 1.27 µM | TGI (CAKI-1 renal): 3.17 µM and > 10 µM | GI50 (T-47D breast): 1.36 µM and 0.765 µM | TGI (T-47D breast): 19.2 µM and > 10 µM | GI50 (MOLT-4 leukemia): 2.62 µM and 2.39 µM | TGI (MOLT-4 leukemia): 9.35 µM and > 10 µM | GI50 (UO-31 renal): 0.37 µM and 0.542 µM | TGI (UO-31 renal): 8.95 µM and > 10 µM | GI50 (U251 CNS): 1.84 µM and 2.85 µM | TGI (U251 CNS): 5.06 µM and > 10 µM | GI50 (SK-MEL-28 melanoma): 1.96 µM and 1.98 µM | TGI (SK-MEL-28 melanoma): 3.93 µM and 4.26 µM | GI50 (SF-295 CNS): 1.62 µM and 3.09 µM | TGI (SF-295 CNS): 4.2 µM and > 10 µM | GI50 (NCI-H460 lung): 5.55 µM and 6.86 µM | TGI (NCI-H460 lung): 23.3 µM and > 10 µM | GI50 (ACHN renal): 0.0625 µM and 0.162 µM | TGI (ACHN renal): 12.5 µM and > 10 µM | GI50 (HCC-2998 colon): 7.63 µM and > 10 µM | TGI (HCC-2998 colon): 22.3 µM and > 10 µM | GI50 (786-0 renal): 2.02 µM and 1.91 µM | TGI (786-0 renal): 8.93 µM and 7.74 µM | GI50 (NCI/ADR-RES ovarian): 4.69 µM and 4.78 µM | TGI (NCI/ADR-RES ovarian): 29.9 µM and > 10 µM | GI50 (SNB-75 CNS): 1.48 µM and 1.88 µM | TGI (SNB-75 CNS): 9.56 µM and 8.12 µM | GI50 (NCI-H522 lung): 0.154 µM and 0.462 µM | TGI (NCI-H522 lung): 2.23 µM and > 10 µM | GI50 (SK-OV-3 ovarian): 0.299 µM | TGI (SK-OV-3 ovarian): 11.1 µM | GI50 (SN12C renal): 0.278 µM and 2.12 µM | TGI (SN12C renal): 15.5 µM and > 10 µM | GI50 (MDA-MB-231 breast): 2.08 µM and 2.88 µM | TGI (MDA-MB-231 breast): 8.3 µM and > 10 µM | GI50 (CCRF-CEM leukemia): 2.41 µM and 3.23 µM | TGI (CCRF-CEM leukemia): 6.43 µM and > 10 µM | GI50 (DU-145 prostate): 1.78 µM and 2.38 µM | TGI (DU-145 prostate): 19.9 µM and > 10 µM | GI50 (TK-10 renal): 0.111 µM and 0.183 µM | TGI (TK-10 renal): 4.43 µM and > 10 µM | GI50 (OVCAR-4 ovarian): 4.71 µM and > 10 µM | TGI (OVCAR-4 ovarian): 23 µM and > 10 µM | GI50 (NCI-H23 lung): 7.39 µM and > 10 µM | TGI (NCI-H23 lung): 33.3 µM and > 10 µM | GI50 (SF-539 CNS): 2.07 µM and 1.9 µM | TGI (SF-539 CNS): 5.67 µM and 5.14 µM
